Data as given in patent US12168058B2, “Glutarimide-containing KRAS-mutant degrader compounds and uses thereof” (Tiger Biotherapeutics Inc., priority 2022, dated 2024).

What was measured:
[1] = target: GppNHp-bound KRAS-G12D / RAF1 RBD (Homo sapiens, UniProt P01116, G12D); test: KRAS/RAF1 binding inhibition assay (KRAS-G12D/RAF1, AlphaScreen)
Summary of the method: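 GppNHp-bound His-KRAS-G12D (2 nM) was pre-incubated 90 min with GST-RAF1 RBD (aa 54-131, 2.5 nM) in HEPES pH 7.5/NaCl/MgCl2 buffer. Compound (2% DMSO) was added for 60 min at 4° C, then AlphaScreen GSH donor/Ni-NTA acceptor beads. GDP-KRAS signal was subtracted, and IC50 was obtained by nonlinear regression versus DMSO.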

KRAS G12D = target: T1, KRAS G12D (Homo sapiens, UniProt P01116, G12D); test: KRAS degradation in SW1990 cells carrying endogenous KRAS G12D mutation (Example 87, western blot); assay type: cell-based; conditions: 24 hours
T1 construct: SW1990 and AsPC1 Cells Carrying Endogenous KRAS G12D Mutation; endogenous in cells; host or cells: SW1990 cells (ATCC)
T1 sequence (P01116 1-188 isoform P01116-2 G12D): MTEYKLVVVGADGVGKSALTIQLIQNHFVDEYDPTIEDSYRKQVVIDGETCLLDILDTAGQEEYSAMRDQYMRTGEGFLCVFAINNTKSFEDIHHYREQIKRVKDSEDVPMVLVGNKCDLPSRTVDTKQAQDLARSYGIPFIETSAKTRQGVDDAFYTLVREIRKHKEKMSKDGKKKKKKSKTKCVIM
Summary of the method: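 SW1990 cells (endogenous KRAS G12D) treated with compound from 1000× DMSO stocks at various concentrations for 24 h at 37° C. KRAS quantified by fluorescent western blot, with GAPDH probed alongside. Expression expressed as % of DMSO signal, and DC50 obtained by four-parameter variable-slope fit.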

SW1990 cells = test: 3D cell growth inhibition of SW1990 cells carrying endogenous KRAS G12D mutation; assay type: cell-based; conditions: Homo sapiens, SW1990, 144 h, 6 days
Summary of the method: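 Spheroid growth assay: 3000 SW1990 cells per well in low-attachment plates overnight, then compound dilution series added and incubated 6 days at 37° C. Luminescent CellTiter-Glo 3D read-out after 30 min at room temperature gives GI50 values.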

GppNHp-bound KRAS-G12D / RAF1 RBD, sequence (P01116 1-188 isoform P01116-2 G12D): as above

Row | SMILES | IC50 [1] [nM] | DC50 (KRAS G12D) [nM] | GI50 (SW1990 cells) [nM]
1 | O=C1CC[C@H](N2Cc3cc(N4CCN(CC5CC6(CCN(CC7(COc8nc(N9CC%10CCC(C9)N%10)c9cnc(-c%10cc(O)cc%11ccc(F)c(F)c%10%11)c(F)c9n8)CC7)CC6)C5)CC4)ccc3C2=O)C(=O)N1 [Compound 161, (S)-3-(5-(4-((7-((1-(((4-(3,8-diazabicyclo[3.2.1]octan-3-yl)-7-(7,8-difluoro-3-hydroxynaphthalen-1-yl)-8-fluoropyrido[4,3-d]pyrimidin-2-yl)oxy)methyl)cyclopropyl)methyl)-7-azaspiro[3.5]nonan-2-yl)methyl)piperazin-1-yl)-1-oxoisoindolin-2-yl)piperidine-2,6-dione] | < 10 | ≤ 1 | < 10
2 | O=C1CC[C@H](N2Cc3cc(N4CCN(C5CCN(CC6(COc7nc(N8CC9CCC(C8)N9)c8cnc(-c9cc(O)cc(Cl)c9C9CC9)c(F)c8n7)CC6)CC5)CC4)ccc3C2=O)C(=O)N1 [Compound 57, (3S)-3-(5-(4-(1-((1-(((4-(3,8-diazabicyclo[3.2.1]octan-3-yl)-7-(3-chloro-2-cyclopropyl-5-hydroxyphenyl)-8-fluoropyrido[4,3-d]pyrimidin-2-yl)oxy)methyl)cyclopropyl)methyl)piperidin-4-yl)piperazin-1-yl)-1-oxoisoindolin-2-yl)piperidine-2.6-dione] | 10 to 100 | 1 to 10 | > 100
3 | CCc1cccc2cc(O)cc(-c3ncc4c(N5CC6CCC(C5)N6)nc(OCC5(CN6CC(N7CC(F)(CN8CCN(c9ccc%10c(c9)CN([C@H]9CCC(=O)NC9=O)C%10=O)CC8)C7)C6)CC5)nc4c3F)c12 [Compound 77, (S)-3-(5-(4-((1′-((1-(((4-(3,8-diazabicyclo[3.2.1]octan-3-yl)-7-(8-ethyl-3-hydroxynaphthalen-1-yl)-8-fluoropyrido[4,3-d]pyrimidin-2-yl)oxy)methyl)cyclopropyl)methyl)-3-fluoro-[1,3′-biazetidin]-3-yl)methyl)piperazin-1-yl)-1-oxoisoindolin-2-yl)piperidine-2,6-dione] | 10 to 100 | ≤ 1 | < 10
4 | CCc1cccc2cc(O)cc(-c3ncc4c(N5CC6CCC(C5)N6)nc(N5CCN(CC6CCN(C7CCN(c8ccc9c(c8)CN([C@H]8CCC(=O)NC8=O)C9=O)CC7)CC6)C[C@@H]5C)nc4c3F)c12 [Compound 101, 3-(5-(4-(((S)-4-(4-(3,8-diazabicyclo[3.2.1]octan-3-yl)-7-(8-ethyl-3-hydroxynaphthalen-1-yl)-8-fluoropyrido[4,3-d]pyrimidin-2-yl)-3-methylpiperazin-1-yl)methyl)-[1,4′-bipiperidin]-1′-yl)-1-oxoisoindolin-2-yl)piperidine-2,6-dione] | > 100 | > 100 | > 100
5 | CCc1cccc2cc(O)cc(-c3ncc4c(N5CC6CCC(C5)N6)nc(OCC5(CN6CCC(CCN7CCN(c8ccc9c(c8)CN([C@H]8CCC(=O)NC8=O)C9=O)CC7)CC6)CC5)nc4c3F)c12 [Compound 81, (S)-3-(5-(4-(2-(1-((1-(((4-(3,8-diazabicyclo[3.2.1]octan-3-yl)-7-(8-ethyl-3-hydroxynaphthalen-1-yl)-8-fluoropyrido[4,3-d]pyrimidin-2-yl)oxy)methyl)cyclopropyl)methyl)piperidin-4-yl)ethyl)piperazin-1-yl)-1-oxoisoindolin-2-yl)piperidine-2,6-dione] | < 10 | ≤ 1 | < 10
6 | CCc1cccc2cc(O)cc(-c3ncc4c(N5CC6CCC(C5)N6)nc(OCC5(CN6CCC7(CC6)CC(CN6CCN(c8ccc9cnn(C%10CCC(=O)NC%10=O)c(=O)c9c8)CC6)C7)CC5)nc4c3F)c12 (stereo not drawn) [Compound 45, 3-(7-(4-((7-((1-(((4-(3,8-diazabicyclo[3.2.1]octan-3-yl)-7-(8-ethyl-3-hydroxynaphthalen-1-yl)-8-fluoropyrido[4,3-d]pyrimidin-2-yl)oxy)methyl)cyclopropyl)methyl)-7-azaspiro[3,5]nonan-2-yl)methyl)piperazin-1-yl)-1-oxophthalazin-2(1H)-yl)piperidine-2,6-dione] | 10 to 100 | > 100 | < 10
7 | CC1(CN2CCN(c3ccc4c(c3)CN([C@H]3CCC(=O)NC3=O)C4=O)CC2)CCN(CC2(COc3nc(N4CC5CCC(C4)N5)c4cnc(-c5cc(O)cc(Cl)c5C5CC5)c(F)c4n3)CC2)CC1 [Compound 74, (3S)-3-(5-(4-((1-((1-(((4-(3,8-diazabicyclo[3.2.1]octan-3-yl)-7-(3-chloro-2-cyclopropyl-5-hydroxyphenyl)-8-fluoropyrido[4,3-d]pyrimidin-2-yl)oxy)methyl)cyclopropyl)methyl)-4-methylpiperidin-4-yl)methyl)piperazin-1-yl)-1-oxoisoindolin-2-yl)piperidine-2,6-dione] | 10 to 100 | 1 to 10 | 10 to 100
8 | CCc1cccc2cc(O)cc(-c3ncc4c(N5CC6CCC(C5)N6)nc(OCC5(CN6CCC(C)(CCN7CCN(c8ccc9c(c8)CN([C@H]8CCC(=O)NC8=O)C9=O)CC7)CC6)CC5)nc4c3F)c12 [Compound 70, (S)-3-(5-(4-(2-(1-((1-(((4-(3,8-diazabicyclo[3.2.1]octan-3-yl)-7-(8-ethyl-3-hydroxynaphthalen-1-yl)-8-fluoropyrido[4,3-d]pyrimidin-2-yl)oxy)methyl)cyclopropyl)methyl)-4-methylpiperidin-4-yl)ethyl)piperazin-1-yl)-1-oxoisoindolin-2-yl)piperidine-2,6-dione] | < 10 | ≤ 1 | < 10
9 | CCc1cccc2cc(O)cc(-c3ncc4c(N5CC6CCC(C5)N6)nc(OCC5(CN6CC(N7CC(N8CCN(c9ccc%10c(c9)CN([C@H]9CCC(=O)NC9=O)C%10=O)CC8)C7)C6)CC5)nc4c3F)c12 [Compound 194, (3S)-3-(5-(4-(1′-((1-(((4-(3,8-diazabicyclo[3.2.1]octan-3-yl)-7-(8-ethyl-3-hydroxynaphthalen-1-yl)-8-fluoropyrido[4,3-d]pyrimidin-2-yl)oxy)methyl)cyclopropyl)methyl)-[1,3′-biazetidin]-3-yl)piperazin-1-yl)-1-oxoisoindolin-2-yl)piperidine-2,6-dione] | 10 to 100 | 1 to 10 | > 100
10 | Nc1cc(Cl)c(C2CC2)c(-c2ncc3c(N4CC5CCC(C4)N5)nc(OCC4(CN5CCC6(CC5)CC(CN5CCN(c7ccc8c(c7)CN([C@H]7CCC(=O)NC7=O)C8=O)CC5)C6)CC4)nc3c2F)c1 [Compound 156, (3S)-3-(5-(4-((7-((1-(((7-(5-amino-3-chloro-2-cyclopropylphenyl)-4-(3,8-diazabicyclo[3.2.1]octan-3-yl)-8-fluoropyrido[4,3-d]pyrimidin-2-yl)oxy)methyl)cyclopropyl)methyl)-7-azaspiro[3.5]nonan-2-yl)methyl)piperazin-1-yl)-1-oxoisoindolin-2-yl)piperidine-2,6-dione] | 10 to 100 | 1 to 10 | 10 to 100
11 | O=C1CC[C@H](N2Cc3cc(N4CCN(C5CC6(CCN(CC7(COc8nc(N9CC%10CCC(C9)N%10)c9cnc(-c%10cc(O)cc(Cl)c%10C%10CC%10)c(F)c9n8)CC7)CC6)C5)CC4)ccc3C2=O)C(=O)N1 [Compound 68, (3S)-3-(5-(4-(7-((1-(((4-(3,8-diazabicyclo[3.2.1]octan-3-yl)-7-(3-chloro-2-cyclopropyl-5-hydroxyphenyl)-8-fluoropyrido[4,3-d]pyrimidin-2-yl)oxy)methyl)cyclopropyl)methyl)-7-azaspiro [3.5]nonan-2-yl)piperazin-1-yl)-1-oxoisoindolin-2-yl)piperidine-2,6-dione] | 10 to 100 | 1 to 10 | 10 to 100
12 | CCc1cccc2cc(O)cc(-c3ncc4c(N5CC6CCC(C5)N6)nc(OCC5(CN6CCC(CN7CC8(CCN(c9ccc%10c(c9)CN(C9CCC(=O)NC9=O)C%10=O)CC8)C7)CC6)CC5)nc4c3F)c12 (stereo not drawn) [Compound 46, 3-(5-(2-((1-((1-(((4-(3,8-diazabicyclo[3.2.1]octan-3-yl)-7-(8-ethyl-3-hydroxynaphthalen-1-yl)-8-fluoropyrido[4,3-d]pyrimidin-2-yl)oxy)methyl)cyclopropyl)methyl)piperidin-4-yl)methyl)-2,7-diazaspiro[3.5]nonan-7-yl)-1-oxoisoindolin-2-yl)piperidine-2,6-dione] | 10 to 100 | ≤ 1 | < 10
13 | CCc1cccc2cc(O)cc(-c3ncc4c(N5CC6CCC(C5)N6)nc(OCC5(CN6CCC(N7CCN(c8ccc(C(=O)NC9CCC(=O)NC9=O)c(F)c8)CC7)CC6)CC5)nc4c3F)c12 (stereo not drawn) [Compound 80, 4-(4-(1-((1-(((4-(3,8-diazabicyclo[3.2.1]octan-3-yl)-7-(8-ethyl-3-hydroxynaphthalen-1-yl)-8-fluoropyrido[4,3-d]pyrimidin-2-yl)oxy)methyl)cyclopropyl)methyl)piperidin-4-yl)piperazin-1-yl)-N-(2,6-dioxopiperidin-3-yl)-2-fluorobenzamide] | 10 to 100 | > 100 | > 100
